Data reported in patent US20230085307A1, “PYRIDAZINONE COMPOUND AND HERBICIDE” (NISSAN CHEMICAL CORPORATION, priority 2019, published 2023).

System: rice flat sedge
Assay: Test Example 3: herbicidal effect by foliage application, Wagner pot (Table 18, symbol E)
Format: in vivo, rice flat sedge (Cyperus iria)
Details: 320 g/ha
Procedure, shortened: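 Plants were sown in alluvial soil held under 0.1–0.5 cm standing water and grown 14 days in a greenhouse at 25–30 °C. An emulsifiable formulation, water-diluted to the set dose, was then sprayed onto the foliage, and effects were scored three weeks later using previously defined criteria.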

Compound | herbicidal effect on rice flat sedge (E)
COc1ccccc1-c1sc2cc(SC)ccc2c1-c1c(O)c(C)nn(C)c1=O [3-163] | 3 (Herbicidal rate of 40% or more and less than 70%)
CCCOc1ccc(-c2sc3c(F)cccc3c2-c2c(OC(=O)CCC)c(C)nn(C)c2=O)cc1 [4-010] | 5 (Herbicidal rate of 90% or more (almost completely withered))

System: Italian ryegrass
Assay: Test Example 5: herbicidal effect by foliage application, plastic box (Table 20, symbol K)
Format: in vivo, Italian ryegrass (Lolium multiflorum)
Details: 320 g/ha, foliage application after 14-day growth, evaluated three weeks after application
Procedure, shortened: (§1)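 Plants were sown into sterilized diluvial soil under about 1.5 cm cover and kept in a greenhouse at 25° C. to 30° C. Fourteen days on, foliage received an even spray of the diluted emulsion. Herbicidal or crop effect was judged three weeks afterwards.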

Compound | herbicidal effect on K: Italian ryegrass (evaluation grade 0-5)
COc1ccccc1-c1sc2cc(SC)ccc2c1-c1c(O)c(C)nn(C)c1=O [3-163] | 4 (Herbicidal rate of 70% or more and less than 90%)
CCCOc1ccc(-c2sc3c(F)cccc3c2-c2c(OC(=O)CCC)c(C)nn(C)c2=O)cc1 [4-010] | 4 (Herbicidal rate of 70% or more and less than 90%)

System: velvetleaf
Assay: Test Example 4: herbicidal effect by soil treatment (Table 19, symbol M)
Format: in vivo, velvetleaf (Abutilon theophrasti)
Details: amount of applied herbicide 320 g/ha
Procedure, shortened: (§2)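 In this soil treatment, the formulated compound reached the seeds only through the soil: seeds were buried about 1.5 cm deep in sterilized diluvial soil, then the diluted emulsion was sprayed over the surface. After three weeks at 25° C. to 30° C. in a greenhouse, effects were graded on criteria from an earlier test.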

Compound | Herbicidal effect by soil treatment, M: velvetleaf
COc1ccccc1-c1sc2cc(SC)ccc2c1-c1c(O)c(C)nn(C)c1=O [3-163] | 1 (Herbicidal rate of 5% or more and less than 20%)
CCCOc1ccc(-c2sc3c(F)cccc3c2-c2c(OC(=O)CCC)c(C)nn(C)c2=O)cc1 [4-010] | 0 (Herbicidal rate of 5% or less (almost no effect))

System: barnyard grass
Assay: Test Example 5: herbicidal effect by foliage application, plastic box (Table 20, symbol H)
Format: in vivo, barnyard grass (Echinochloa crus-galli)
Details: 320 g/ha, foliage application after 14-day growth, evaluated three weeks after application
Procedure, shortened: as §1

Compound | herbicidal effect on H: barnyard grass (evaluation grade 0-5)
COc1ccccc1-c1sc2cc(SC)ccc2c1-c1c(O)c(C)nn(C)c1=O [3-163] | 5 (Herbicidal rate of 90% or more (almost completely withered))
CCCOc1ccc(-c2sc3c(F)cccc3c2-c2c(OC(=O)CCC)c(C)nn(C)c2=O)cc1 [4-010] | 5 (Herbicidal rate of 90% or more (almost completely withered))

System: Italian ryegrass
Assay: Test Example 4: herbicidal effect by soil treatment (Table 19, symbol K)
Format: in vivo, Italian ryegrass (Lolium multiflorum)
Details: amount of applied herbicide 320 g/ha
Procedure, shortened: as §2

Compound | Herbicidal effect by soil treatment, K: Italian ryegrass
COc1ccccc1-c1sc2cc(SC)ccc2c1-c1c(O)c(C)nn(C)c1=O [3-163] | 3 (Herbicidal rate of 40% or more and less than 70%)
CCCOc1ccc(-c2sc3c(F)cccc3c2-c2c(OC(=O)CCC)c(C)nn(C)c2=O)cc1 [4-010] | 2 (Herbicidal rate of 20% or more and less than 40%)

System: lambsquarters
Assay: Test Example 5: herbicidal effect by foliage application, plastic box (Table 20, symbol O)
Format: in vivo, lambsquarters (Chenopodium album)
Details: 320 g/ha, foliage application after 14-day growth, evaluated three weeks after application
Procedure, shortened: as §1

Compound | herbicidal effect on O: lambsquarters (evaluation grade 0-5)
COc1ccccc1-c1sc2cc(SC)ccc2c1-c1c(O)c(C)nn(C)c1=O [3-163] | 4 (Herbicidal rate of 70% or more and less than 90%)
CCCOc1ccc(-c2sc3c(F)cccc3c2-c2c(OC(=O)CCC)c(C)nn(C)c2=O)cc1 [4-010] | 5 (Herbicidal rate of 90% or more (almost completely withered))

System: lambsquarters
Assay: Test Example 4: herbicidal effect by soil treatment (Table 19, symbol O)
Format: in vivo, lambsquarters (Chenopodium album)
Details: amount of applied herbicide 320 g/ha
Procedure, shortened: as §2

Compound | Herbicidal effect by soil treatment, O: lambsquarters
COc1ccccc1-c1sc2cc(SC)ccc2c1-c1c(O)c(C)nn(C)c1=O [3-163] | 3 (Herbicidal rate of 40% or more and less than 70%)
CCCOc1ccc(-c2sc3c(F)cccc3c2-c2c(OC(=O)CCC)c(C)nn(C)c2=O)cc1 [4-010] | 3 (Herbicidal rate of 40% or more and less than 70%)

System: late watergrass
Assay: Test Example 2: herbicidal activity, application during weed generation under submerged conditions (Table 17, symbol A)
Format: in vivo, late watergrass (Echinochloa oryzicola)
Details: AAH 320 g/ha; application during weed generation, submerged conditions
Procedure, shortened: (§3)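 Alluvial soil in Wagner pots was flooded to 4 cm depth and sown with the three weeds together; pots were kept in a greenhouse at 25° C. to 30° C. At the one to two leaf stage, an emulsion formulation diluted in water to a set rate went onto the water surface; scored three weeks later.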

Compound | herbicidal effect rating, A: late watergrass
COc1ccccc1-c1sc2cc(SC)ccc2c1-c1c(O)c(C)nn(C)c1=O [3-163] | 3 (Herbicidal rate of 40% or more and less than 70%)
CCCOc1ccc(-c2sc3c(F)cccc3c2-c2c(OC(=O)CCC)c(C)nn(C)c2=O)cc1 [4-010] | 4 (Herbicidal rate of 70% or more and less than 90%)

System: velvetleaf
Assay: Test Example 5: herbicidal effect by foliage application, plastic box (Table 20, symbol M)
Format: in vivo, velvetleaf (Abutilon theophrasti)
Details: 320 g/ha, foliage application after 14-day growth, evaluated three weeks after application
Procedure, shortened: as §1

Compound | herbicidal effect on M: velvetleaf (evaluation grade 0-5)
COc1ccccc1-c1sc2cc(SC)ccc2c1-c1c(O)c(C)nn(C)c1=O [3-163] | 5 (Herbicidal rate of 90% or more (almost completely withered))
CCCOc1ccc(-c2sc3c(F)cccc3c2-c2c(OC(=O)CCC)c(C)nn(C)c2=O)cc1 [4-010] | 3 (Herbicidal rate of 40% or more and less than 70%)

System: Japanese bulrush
Assay: Test Example 1: herbicidal activity, application before weed generation under submerged conditions (Table 16, symbol B)
Format: in vivo, Japanese bulrush (Schoenoplectus juncoides)
Details: amount of applied herbicide 320 g/ha
Procedure, shortened: (§4)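 Emulsion formulation, water-diluted to set dose, was put onto the flooded surface (4 cm depth, alluvial soil) the same day weeds were sown and 2.5-leaf rice transplanted. After 3 weeks at 25-30 °C under glass, each species was rated 0 (≤5% kill) to 5 (≥90% kill).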

Compound | Herbicidal effect, B: Japanese bulrush
COc1ccccc1-c1sc2cc(SC)ccc2c1-c1c(O)c(C)nn(C)c1=O [3-163] | 3 (Herbicidal rate of 40% or more and less than 70%)
CCCOc1ccc(-c2sc3c(F)cccc3c2-c2c(OC(=O)CCC)c(C)nn(C)c2=O)cc1 [4-010] | 0 (Herbicidal rate of 5% or less (almost no effect))

System: wild oat
Assay: Test Example 4: herbicidal effect by soil treatment (Table 19, symbol I)
Format: in vivo, wild oat (Avena fatua)
Details: amount of applied herbicide 320 g/ha
Procedure, shortened: as §2

Compound | Herbicidal effect by soil treatment, I: wild oat
COc1ccccc1-c1sc2cc(SC)ccc2c1-c1c(O)c(C)nn(C)c1=O [3-163] | 0 (Herbicidal rate of 5% or less (almost no effect))
CCCOc1ccc(-c2sc3c(F)cccc3c2-c2c(OC(=O)CCC)c(C)nn(C)c2=O)cc1 [4-010] | 0 (Herbicidal rate of 5% or less (almost no effect))

System: wild oat
Assay: Test Example 5: herbicidal effect by foliage application, plastic box (Table 20, symbol I)
Format: in vivo, wild oat (Avena fatua)
Details: 320 g/ha, foliage application after 14-day growth, evaluated three weeks after application
Procedure, shortened: as §1

Compound | herbicidal effect on I: wild oat (evaluation grade 0-5)
COc1ccccc1-c1sc2cc(SC)ccc2c1-c1c(O)c(C)nn(C)c1=O [3-163] | 5 (Herbicidal rate of 90% or more (almost completely withered))
CCCOc1ccc(-c2sc3c(F)cccc3c2-c2c(OC(=O)CCC)c(C)nn(C)c2=O)cc1 [4-010] | 0 (Herbicidal rate of 5% or less (almost no effect))

System: chickweed
Assay: Test Example 5: herbicidal effect by foliage application, plastic box (Table 20, symbol P)
Format: in vivo, common chickweed (Stellaria media)
Details: 320 g/ha, foliage application after 14-day growth, evaluated three weeks after application
Procedure, shortened: as §1

Compound | herbicidal effect on P: chickweed (evaluation grade 0-5)
COc1ccccc1-c1sc2cc(SC)ccc2c1-c1c(O)c(C)nn(C)c1=O [3-163] | 5 (Herbicidal rate of 90% or more (almost completely withered))
CCCOc1ccc(-c2sc3c(F)cccc3c2-c2c(OC(=O)CCC)c(C)nn(C)c2=O)cc1 [4-010] | 5 (Herbicidal rate of 90% or more (almost completely withered))

System: persian speedwell
Assay: Test Example 4: herbicidal effect by soil treatment (Table 19, symbol R)
Format: in vivo, Persian speedwell (Veronica persica)
Details: amount of applied herbicide 320 g/ha
Procedure, shortened: as §2

Compound | Herbicidal effect by soil treatment, R: persian speedwell
COc1ccccc1-c1sc2cc(SC)ccc2c1-c1c(O)c(C)nn(C)c1=O [3-163] | 3 (Herbicidal rate of 40% or more and less than 70%)
CCCOc1ccc(-c2sc3c(F)cccc3c2-c2c(OC(=O)CCC)c(C)nn(C)c2=O)cc1 [4-010] | 3 (Herbicidal rate of 40% or more and less than 70%)

System: oval-leafed pondweed
Assay: Test Example 1: herbicidal activity, application before weed generation under submerged conditions (Table 16, symbol C)
Format: in vivo, oval-leafed pondweed (Monochoria vaginalis)
Details: amount of applied herbicide 320 g/ha
Procedure, shortened: as §4

Compound | Herbicidal effect, C: oval-leafed pondweed
COc1ccccc1-c1sc2cc(SC)ccc2c1-c1c(O)c(C)nn(C)c1=O [3-163] | 3 (Herbicidal rate of 40% or more and less than 70%)
CCCOc1ccc(-c2sc3c(F)cccc3c2-c2c(OC(=O)CCC)c(C)nn(C)c2=O)cc1 [4-010] | 3 (Herbicidal rate of 40% or more and less than 70%)

System: windgrass
Assay: Test Example 5: herbicidal effect by foliage application, plastic box (Table 20, symbol L)
Format: in vivo, windgrass (Apera spica-venti)
Details: 320 g/ha, foliage application after 14-day growth, evaluated three weeks after application
Procedure, shortened: as §1

Compound | herbicidal effect on L: windgrass (evaluation grade 0-5)
COc1ccccc1-c1sc2cc(SC)ccc2c1-c1c(O)c(C)nn(C)c1=O [3-163] | 5 (Herbicidal rate of 90% or more (almost completely withered))
CCCOc1ccc(-c2sc3c(F)cccc3c2-c2c(OC(=O)CCC)c(C)nn(C)c2=O)cc1 [4-010] | 0 (Herbicidal rate of 5% or less (almost no effect))

System: Japanese bulrush
Assay: Test Example 2: herbicidal activity, application during weed generation under submerged conditions (Table 17, symbol B)
Format: in vivo, Japanese bulrush (Schoenoplectus juncoides)
Details: AAH 320 g/ha; application during weed generation, submerged conditions
Procedure, shortened: as §3

Compound | herbicidal effect rating, B: Japanese bulrush
COc1ccccc1-c1sc2cc(SC)ccc2c1-c1c(O)c(C)nn(C)c1=O [3-163] | 0 (Herbicidal rate of 5% or less (almost no effect))
CCCOc1ccc(-c2sc3c(F)cccc3c2-c2c(OC(=O)CCC)c(C)nn(C)c2=O)cc1 [4-010] | 0 (Herbicidal rate of 5% or less (almost no effect))
